In paper PMC10987480, “Biological and mutational analyses of CXCR4–antagonist interactions and design of new antagonistic analogs” (Bioscience Reports, 2023):
Blank lines part the entries; values can stand above or below the compound they belong to. Positions of bridges follow the written chain, without caps; N, C: chain ends. Non-standard residues stand in square brackets, D forms with d. Residues, ends and D or L forms follow the SMILES beside them. Chains are numbered I, II in the order given. 2Nal = N[C@@H](Cc1ccc2ccccc2c1)C(=O)O; Lys(iPr) = CC(C)NCCCC[C@H](N)C(=O)O

Key:
CXCR4 [1] = target: T1, CXCR4 (Homo sapiens, UniProt P61073); test: SDF-1α-induced calcium mobilization assay in SupT1 cells (Fluo-4); format: cell-based; parameters: host or cells: SupT1 cells; details: 50 nM SDF-1α
Description: Figure 2 The inhibitory effect of the antagonists on SDF-1α-induced cell chemotaxis and calcium mobilization in SupT1 cells The antagonists and concentrations used were labeled in each lane. (A) The inhibition of cell migration by the noted antagonists. SupT1 cells pre-treated with or without CXCR4 antagonists were seeded in the upper well and cell migrated by 2 nM SDF-1α. Migrated cells without SDF-1α were used as a negative (0%) and migrated cell induced by SDF-1α as a positive control (100%). […] SupT1 cells were treated with or without CXCR4 antagonists and activated by 50 nM SDF-1α. To directly compare the inhibitory effect of the antagonists on calcium mobilization, the vehicle background and baseline were removed using GraphPad and Origin. The data were averages of at least three independent experiments.
SupT1 cells were collected and washed using HHBS buffer (Hanks’ Balanced Salt solution supplemented with 20 mM HEPES) and incubated with 1 mM probenecid (Energy Chemical, China) and 4 μM Fluo-4 (AAT bioquest, U.S.A.) for 37°C for 30 min with vortex every 5 min. After being washed with HHBS, cells were suspended in PBS at 2 × 10^6/ml and seeded 200 μl cells and various concentrations of compounds per well in 96-well plate. Following 50 nM SDF-1α was added to each well, the fluorescence intensity was measured (Ex/Em = 496/516 nm) using EnSpire® multimode plate reader (PerkinElmer, U.S.A.).

CXCR4 V112A = target: T2, CXCR4 V112A (Homo sapiens, UniProt P61073, V112A); test: Competitive binding to CXCR4 mutant V112A (12G5, CHO cells); details: TM3, class of reduction vs wild-type CXCR4, 12G5 competition, averages of at least three independent experiments
T2 construct: expressed in transfected cells
Description: (§1) Plasmid pcDNA3-CXCR4 and mutated pcDNA3-CXCR4 were extracted and transfected into CHO cells using Lipofectamine 2000 according to the manufacturer’s guidelines. The selective medium containing G418 at a concentration of 1.2 mg/ml was applied to isolate stably transfected cells. CHO cells expressing wild-type CXCR4 and mutant CXCR4 were obtained using fluorescence-activated cell sorting (FACS).
(§2) All of the CXCR4 mutants were prepared using PCR technology. Briefly, pairs of asymmetrical primers containing the desired amino acid mutations (Supplementary Tables S1 and S2), each complementary to opposite strands of the pcDNA3–CXCR4, were designed for amplification by Q5® High-Fidelity DNA polymerase and the generation of mutated constructs. The methylated pcDNA3–CXCR4 templates were digested by DpnI. The mutated pcDNA3–CXCR4 was transformed into competent E. coli TOP10 for long-term storage and amplification.
(§3) The procedure for the CXCR4 competitive binding experiments was published previously. Briefly, CXCR4 antibody 12G5 (250 ng/ml) was incubated with 5 × 10^5 cells and varying concentrations of unlabeled compounds in a final volume of 100 μl of assay buffer (PBS with 0.5% BSA and 0.05% NaN3) in 96-well plates for 40 min on ice, after being washed with assay buffer once. The cells were incubated with FITC-conjugated second antibody IgG for 30 min on ice, then washed with assay buffer three times. The fluorescence intensity was measured for excitation at 485 nm and emission at 535 nm using multimode plate reader (PerkinElmer). The IC50 values were calculated using graphpad Prism 7. Experiments were performed at least three times.

CXCR4 [2] = target: T1, CXCR4; test: Competitive CXCR4 binding assay (12G5 antibody probe), wild-type CXCR4 transfected CHO cells; parameters: expressed in transfected cells; Competitive receptor binding activity, wild-type CXCR4 (WT): key to the marks not given beside the values; details: for Competitive receptor binding activity, wild-type CXCR4 (WT): class relative to wild-type, 12G5 competition, stably transfected CHO cells, averages of at least three independent experiments
Description: The CXCR4-specific antibody, 12G5 was used as a probe for the competitive CXCR4 binding assay to evaluate the binding activity of CXCR4 antagonists.
Figure 1 Competitive CXCR4 binding curves of eleven CXCR4 antagonists The CXCR4 transfected CHO cells were incubated with different concentrations of antagonists and 250 ng/ml 12G5 antibody. The CXCR4-binding 12G5 antibody was recognized by FITC-conjugated anti-IgG second antibody. The cells treated with only second antibody were used as a negative control (0%) while cells treated with both 12G5 antibody and second antibody were used as a positive control (100%). Cells treated with CXCR4 antagonists were calculated in percentage relative to the positive and negative controls. The data were averages of at least three independent experiments and shown as mean ± standard error of the mean (S.E.M.).
as §3

CXCR4 W195A = target: T3, CXCR4 W195A (Homo sapiens, UniProt P61073, W195A); test: Competitive binding to CXCR4 mutant W195A (12G5, CHO cells); details: TM4, class of reduction vs wild-type CXCR4, 12G5 competition, averages of at least three independent experiments
T3 construct: expressed in transfected cells
Description: as §1, §2, §3

CXCR4 H113A = target: T4, CXCR4 H113A (Homo sapiens, UniProt P61073, H113A); test: Competitive binding to CXCR4 mutant H113A (12G5, CHO cells); details: TM3, class of reduction vs wild-type CXCR4, 12G5 competition, averages of at least three independent experiments
T4 construct: expressed in transfected cells
Description: as §1, §2, §3

CXCR4 Y255A = target: T5, CXCR4 Y255A (Homo sapiens, UniProt P61073, Y255A); test: Competitive binding to CXCR4 mutant Y255A (12G5, CHO cells); details: TM6, class of reduction vs wild-type CXCR4, 12G5 competition, averages of at least three independent experiments
T5 construct: expressed in transfected cells
Description: as §1, §2, §3

CXCR4 D97A = target: T6, CXCR4 D97A (Homo sapiens, UniProt P61073, D97A); test: Competitive binding to CXCR4 mutant D97A (12G5, CHO cells); details: TM2, class of reduction vs wild-type CXCR4, 12G5 competition, averages of at least three independent experiments
T6 construct: expressed in transfected cells
Description: as §1, §2, §3

CXCR4 D262E = target: T7, CXCR4 D262E (Homo sapiens, UniProt P61073, D262E); test: Competitive binding to CXCR4 mutant D262E (12G5, CHO cells); details: TM6, class of reduction vs wild-type CXCR4, 12G5 competition, averages of at least three independent experiments
T7 construct: expressed in transfected cells
Description: as §1, §2, §3

CXCR4 W161A = target: T8, CXCR4 W161A (Homo sapiens, UniProt P61073, W161A); test: Competitive binding to CXCR4 mutant W161A (12G5, CHO cells); details: TM4, class of reduction vs wild-type CXCR4, 12G5 competition, averages of at least three independent experiments
T8 construct: expressed in transfected cells
Description: as §1, §2, §3

CXCR4 H281A = target: T9, CXCR4 H281A (Homo sapiens, UniProt P61073, H281A); test: Competitive binding to CXCR4 mutant H281A (12G5, CHO cells); details: TM7, class of reduction vs wild-type CXCR4, 12G5 competition, averages of at least three independent experiments
T9 construct: expressed in transfected cells
Description: as §1, §2, §3

CXCR4 H203A = target: T10, CXCR4 H203A (Homo sapiens, UniProt P61073, H203A); test: Competitive binding to CXCR4 mutant H203A (12G5, CHO cells); details: TM5, class of reduction vs wild-type CXCR4, 12G5 competition, averages of at least three independent experiments
T10 construct: expressed in transfected cells
Description: as §1, §2, §3

CXCR4 T117A = target: T11, CXCR4 T117A (Homo sapiens, UniProt P61073, T117A); test: Competitive binding to CXCR4 mutant T117A (12G5, CHO cells); details: TM3, class of reduction vs wild-type CXCR4, 12G5 competition, averages of at least three independent experiments
T11 construct: expressed in transfected cells
Description: as §1, §2, §3

CXCR4 Y45A = target: T12, CXCR4 Y45A (Homo sapiens, UniProt P61073, Y45A); test: Competitive binding to CXCR4 mutant Y45A (12G5, CHO cells); details: TM1, class of reduction vs wild-type CXCR4, 12G5 competition, averages of at least three independent experiments
T12 construct: expressed in transfected cells
Description: as §1, §2, §3

T1 sequence (P61073 whole entry): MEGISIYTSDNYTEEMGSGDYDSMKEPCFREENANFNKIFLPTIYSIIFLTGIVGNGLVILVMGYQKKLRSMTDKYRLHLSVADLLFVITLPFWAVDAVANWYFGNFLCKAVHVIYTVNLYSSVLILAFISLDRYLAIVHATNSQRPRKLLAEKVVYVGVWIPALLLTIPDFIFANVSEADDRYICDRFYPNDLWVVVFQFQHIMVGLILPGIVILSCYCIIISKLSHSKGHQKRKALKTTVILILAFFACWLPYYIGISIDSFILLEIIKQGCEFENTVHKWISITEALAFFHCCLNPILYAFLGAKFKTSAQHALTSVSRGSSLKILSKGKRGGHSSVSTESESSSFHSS
T8 sequence (P61073 whole entry W161A): as the sequence (P61073 whole entry) above, with W161A counted along it
T6 sequence (P61073 whole entry D97A): as the sequence (P61073 whole entry) above, with D97A counted along it
T10 sequence (P61073 whole entry H203A): as the sequence (P61073 whole entry) above, with H203A counted along it
T2 sequence (P61073 whole entry V112A): as the sequence (P61073 whole entry) above, with V112A counted along it
T5 sequence (P61073 whole entry Y255A): as the sequence (P61073 whole entry) above, with Y255A counted along it
T7 sequence (P61073 whole entry D262E): as the sequence (P61073 whole entry) above, with D262E counted along it
T4 sequence (P61073 whole entry H113A): as the sequence (P61073 whole entry) above, with H113A counted along it
T3 sequence (P61073 whole entry W195A): as the sequence (P61073 whole entry) above, with W195A counted along it
T9 sequence (P61073 whole entry H281A): as the sequence (P61073 whole entry) above, with H281A counted along it
T12 sequence (P61073 whole entry Y45A): as the sequence (P61073 whole entry) above, with Y45A counted along it
T11 sequence (P61073 whole entry T117A): as the sequence (P61073 whole entry) above, with T117A counted along it

Inhibition of calcium mobilization (in words) (CXCR4 [1]; single concentration (Figure 2B)): significant inhibition
IC50 (CXCR4 [2]; CXCR4 transfected CHO cells, 250 ng/ml 12G5, 40 min on ice, FITC second antibody, mean ± S.E.M. of at least three independent experiments, SEM, read-out: IC50 (nM), inhibition of 12G5 binding to CXCR4): 135 ± 63.9 nM
Competitive receptor binding activity, wild-type CXCR4 (WT) (CXCR4 [2]): +++
Compound: CC(C)NCCCC[C@H](NC(=O)[C@H]1CCC(=O)N[C@@H](Cc2ccccc2)C(=O)N[C@@H](Cc2ccc(O)cc2)C(=O)N[C@@H](CCCCNC(C)C)C(=O)N[C@H](CCCNC(=N)N)C(=O)N[C@@H](Cc2ccc3ccccc3c2)C(=O)NCC(=O)N1)C(N)=O [LY2510924] (FY[Lys(iPr)][dR][2Nal]G[dE][Lys(iPr)]-NH2; lactam N-7 (inferred))
Competitive receptor binding activity, CXCR4 V112A (CXCR4 V112A): ++ (10–29% reduction compared with wild-type CXCR4)
Competitive receptor binding activity, CXCR4 W195A (CXCR4 W195A): ++ (10–29% reduction compared with wild-type CXCR4)
Competitive receptor binding activity, CXCR4 H113A (CXCR4 H113A): + (30–60% reduction compared with wild-type CXCR4)
Competitive receptor binding activity, CXCR4 Y255A (CXCR4 Y255A): ++ (10–29% reduction compared with wild-type CXCR4)
Competitive receptor binding activity, CXCR4 D97A (CXCR4 D97A): + (30–60% reduction compared with wild-type CXCR4)
Competitive receptor binding activity, CXCR4 D262E (CXCR4 D262E): ++ (10–29% reduction compared with wild-type CXCR4)
Competitive receptor binding activity, CXCR4 W161A (CXCR4 W161A): ++ (10–29% reduction compared with wild-type CXCR4)
Competitive receptor binding activity, CXCR4 H281A (CXCR4 H281A): ++ (10–29% reduction compared with wild-type CXCR4)
Competitive receptor binding activity, CXCR4 H203A (CXCR4 H203A): + (30–60% reduction compared with wild-type CXCR4)
Competitive receptor binding activity, CXCR4 T117A (CXCR4 T117A): + (30–60% reduction compared with wild-type CXCR4)
Competitive receptor binding activity, CXCR4 Y45A (CXCR4 Y45A): + (30–60% reduction compared with wild-type CXCR4)

Compound: CC(C)C[C@@H](N)C(=O)NCC(=O)N[C@H](C)C(=O)N[C@H](CO)C(=O)N[C@H](Cc1c[nH]c2ccccc12)C(=O)N[C@H](Cc1c[nH]cn1)C(=O)N[C@H](CCCNC(=N)N)C(=O)N1CCC[C@@H]1C(=O)N[C@H](CC(=O)O)C(=O)N[C@H](CCCCN)C(=O)NCCCC[C@@H](NC(=O)[C@H]1CCCN1C(=O)[C@@H](CC(C)C)NC(=O)[C@H]1CCCN1C(=O)[C@@H](CCCNC(=N)N)NC(=O)[C@@H](CCCCN)NC(=O)[C@@H](CCC(N)=O)NC(=O)[C@@H](Cc1ccc(O)cc1)NC(=O)CNC(=O)[C@@H](CC(C)C)NC(=O)[C@@H](CS)NC(=O)[C@@H](CS)NC(=O)[C@@H](CCCCN)NC(=O)[C@@H](CC(=O)O)NC(=O)[C@H]1CCCN1C(=O)[C@@H](CCCNC(=N)N)NC(=O)[C@@H](Cc1c[nH]cn1)NC(=O)[C@@H](Cc1c[nH]c2ccccc12)NC(=O)[C@@H](CO)NC(=O)[C@@H](C)NC(=O)CNC(=O)[C@H](N)CC(C)C)C(=O)O [HC4319] (I: H-[dL]G[dA][dS][dW][dH][dR][dP][dD][dK][dC][dC][dL]G[dY][dQ][dK][dR][dP][dL][dP][dK]-OH / II: H-[dL]G[dA][dS][dW][dH][dR][dP][dD][dK]; amide I:22-II:C; N-terminus and C-terminus assumed)
inhibition at 1 µM (CXCR4 [1]; SUP-T1, at 1 μM): 77%
Competitive receptor binding activity, CXCR4 V112A (CXCR4 V112A): +++
Competitive receptor binding activity, wild-type CXCR4 (WT) (CXCR4 [2]): +++
Competitive receptor binding activity, CXCR4 W195A (CXCR4 W195A): ++ (10–29% reduction compared with wild-type CXCR4)
Competitive receptor binding activity, CXCR4 H113A (CXCR4 H113A): ++ (10–29% reduction compared with wild-type CXCR4)
Competitive receptor binding activity, CXCR4 Y255A (CXCR4 Y255A): ++ (10–29% reduction compared with wild-type CXCR4)
Competitive receptor binding activity, CXCR4 D97A (CXCR4 D97A): ++ (10–29% reduction compared with wild-type CXCR4)
Competitive receptor binding activity, CXCR4 D262E (CXCR4 D262E): ++ (10–29% reduction compared with wild-type CXCR4)
Competitive receptor binding activity, CXCR4 W161A (CXCR4 W161A): +++
Competitive receptor binding activity, CXCR4 H281A (CXCR4 H281A): ++ (10–29% reduction compared with wild-type CXCR4)
Competitive receptor binding activity, CXCR4 H203A (CXCR4 H203A): +++
Competitive receptor binding activity, CXCR4 T117A (CXCR4 T117A): +++
Competitive receptor binding activity, CXCR4 Y45A (CXCR4 Y45A): + (30–60% reduction compared with wild-type CXCR4)
